Experimental findings from patent US20070004735A1, “Method for inhibiting the replication of herpes viruses” (priority 2003, published 2007) are described below.

The structures appear in SMILES notation.

Test [1] concerns HCMV AD169 clone with mutation in UL86 E1320Q. Put plainly: Susceptibility (IC50) of resistant HCMV AD169 clone E1320Q. The class given is cell-based, Human cytomegalovirus. The conditions noted are these: Human betaherpesvirus 5, read-out: IC 50, E1320Q. Here is the method:
(§1) The test compounds are employed as 50 millimolar (mM) solutions in dimethyl sulfoxide (DMSO). Ganciclovir®, Foscarnet® and Cidofovir® are used as reference compounds. After addition of in each case 2 μl of the 50, 5, 0.5 and 0.05 mM DMSO stock solutions to 98 μl portions of cell culture medium in row 2 A-H for duplicate determinations, 1:2 dilutions are carried out with 50 μl portions of medium up to row 11 of the 96-well plate. The wells in rows 1 and 12 each contain 50 μl of medium. 150 μl of a suspension of 1×10^4 cells (human prepuce fibroblasts [NHDF]) are then pipetted into each of the wells (row 1=cell control) and, in rows 2-12, a mixture of HCMV-infected and uninfected NHDF cells (M.O.I.=0.001-0.002), i.e. 1-2 infected cells per 1000 uninfected cells. Row 12 (without substance) serves as virus control. The final test concentrations are 250-0.0005 μM. The plates are incubated at 37° C./5% CO2 for 6 days, i.e. until all the cells are infected in the virus controls (100% cytopathogenic effect [CPE]). The wells are then fixed and stained by adding a mixture of formalin and Giemsa's dye (30 minutes), washed with double-distilled water and dried in a drying oven at 50° C. The plates are then assessed visually using an overhead microscope (plaque multiplier from Technomara).
(§2) For this purpose, NHDF cells are seeded in tissue culture vessels. 5×10^3 cells per well are seeded in 96-well plates and infected with cell-free HCMV AD169 with an moi of 0.03. The infections are cultivated under substance pressure which corresponds to 10 times the IC50 of the substance. Preferably, 30-100 96-well plates inoculated as described are made up. […] Finally, viral stocks are produced as described above and frozen. Serial ten-fold dilution of the virus-infected cells or of the cell culture supernatant of the virus-infected cells is followed by determination of the titer on 24-well plates of confluent NHDF cells after vital staining with neutral red. Finally, the susceptibility to various substances (IC50 determination) is determined as described above.
(§3) The HCMVAD169 mutants selected as described above are grown in vitro on human embryonic prepuce fibroblasts (NHDF cells) under substance pressure (10×IC50 HCMVAD169). After infection of the NHDF cells with a multiplicity of infection (M.O.I) of 0.01, the virus-infected cells are harvested 5-10 days later, and the total DNA is isolated from these cells with the aid of established standard methods (e.g. phenol extraction and ethanol precipitation). Qiagen Sequencing Services (Qiagen, Hilden) determined, after amplification of the viral UL86 gene by PCR, the DNA sequence, which was then transcribed into protein sequence. Compared with the initial strain HCMV AD169, the differences shown in table 2 were detectable in the protein sequence of the major capsid protein (UL86) in the resistant viruses. The IC50 values [μM] of various substances on these mutants compared with the initial strain are likewise indicated. (n.d.=not measured). […] Depending on the nature of the substance, certain mutations lead to various extents of resistance.

In test [2] the test system is HCMV AD169 clone with mutation in UL86 R435C. Put plainly: Susceptibility (IC50) of resistant HCMV AD169 clone R435C. The class given is cell-based, Human cytomegalovirus. The conditions noted are these: Human betaherpesvirus 5, read-out: IC 50, R435C. Here is the method: as §1, §2, §3
The subject of test [3] is HCMV AD169 clone with mutation in UL86 D441N. Put plainly: Susceptibility (IC50) of resistant HCMV AD169 clone D441N. The conditions noted are these: Human betaherpesvirus 5, read-out: IC 50, D441N. The class given is cell-based, Human cytomegalovirus. As to the method: as §1, §2, §3
In test [4] the test system is HCMV AD169 clone with mutation in UL86 R682H. Put plainly: Susceptibility (IC50) of resistant HCMV AD169 clone R682H. The conditions noted are these: Human betaherpesvirus 5, read-out: IC 50, R682H. The format is cell-based, Human cytomegalovirus. As to the method: as §1, §2, §3
Test [5] deals with HCMV AD169 clone with mutation in UL86 D563N. Put plainly: Susceptibility (IC50) of resistant HCMV AD169 clone D563N. The format is cell-based, Human cytomegalovirus. The conditions noted are these: Human betaherpesvirus 5, read-out: IC 50, D563N. As to the method: as §1, §2, §3
For test [6], the system named is Human cytomegalovirus (HCMV). Put plainly: Anti-HCMV cytopathogenicity test. The format is cell-based. To be noted: for IC50: Human betaherpesvirus 5, 144 h, NHDF cells, 6 days, cytopathogenic effect, read-out: IC50, antiviral activity in vitro; for SI (selectivity index): antiviral activity in vitro. Here is the method:
Human cytomegalovirus (HCMV), DavisSmith (ATCC VR807) or AD169 (ATCC VR538) strain, is grown in vitro on human embryonic prepuce fibroblasts (NHDF cells). After the NHDF cells have been infected with a multiplicity of infection (M.O.I.) of 0.01, the virus-infected cells are harvested 5-10 days later and stored in the presence of minimal essential medium (MEM), 10% fetal calf serum (FCS) with 10% DMSO at −80° C. A cell-free stock is produced by removing only the cell culture supernatant and immediately freezing at −80° C. After serial ten-fold dilutions of the virus-infected cells or of the cell culture supernatant of the virus-infected cells (cell-free virus), the titer is determined on 24-well plates of confluent NHDF cells after vital staining with neutral red.
as §1

In test [7] the test system is HCMV AD169 clone with mutation in UL86 V601M. Nature of the test: Susceptibility (IC50) of resistant HCMV AD169 clone V601M. The class given is cell-based, Human cytomegalovirus. The conditions noted are these: Human betaherpesvirus 5, read-out: IC 50, V601M. As to the method:
as §1, §2, §3

In the case of `CCCCC(=O)Nc1ccc(NC(=O)Nc2ccc(F)c(Cl)c2)cc1` [Example 4, N-[4-({[(3-Chloro-4-fluorophenyl)amino]carbonyl}amino)phenyl]pentanamide], the IC50 is 2000 nM in test [1]; greater than 60000 nM in test [2]; 500 nM in test [3]; 500 nM in test [4]; 1000 nM in test [5]; 80 nM in test [6]. Also, in test [7], the IC50 was found to be 500 nM. Moreover, in test [6], the “SI (selectivity index)” value is 750.

Take `CC1(C)CC(=O)NN=C1c1cccc(NC(=O)Nc2ccc(F)cc2F)c1` [Example 1, N-(2,4-Difluorophenyl)-N′-[3-(4,4-dimethyl-6-oxo-1,4,5,6-tetrahydro-3-pyridazinyl)phenyl]urea]: the IC50 is greater than 125000 nM in test [1]; 1500 nM in test [2]; 20000 nM in test [3]; 20000 nM in test [4]; greater than 125000 nM in test [5]; 1000 nM in test [6]. Moreover, the IC50 in test [7] was determined as 20000 nM. Further, the “SI (selectivity index)” value in test [6] is recorded as 125.

Take `CC1(C)CC(=O)NN=C1c1cc(NC(=O)Nc2cc(F)ccc2F)ccc1O` [Example 2, N-(2,5-Difluorophenyl)-N′-[3-(4,4-dimethyl-6-oxo-1,4,5,6-tetrahydro-3-pyridazinyl)-4-hydroxyphenyl]urea]: the IC50 in test [1] amounted to 13000 nM; in test [2], 500 nM; in test [3] it was 1500 nM; in test [4], 3000 nM; in test [5], 6000 nM; in test [6], 400 nM. In addition, in test [7], the IC50 stood at 3000 nM. Further, the “SI (selectivity index)” value in test [6] was found to be 325.
